Experimental data reported in patent US20240336617A1, “Substituted Bimane Compounds and Methods of Use Thereof” (THE TRUSTEES OF THE UNIVERSITY OF PENNSYLVANIA, priority 2023, published 2024).

Key:
tau fibrils = target: T1, tau fibrils (Homo sapiens, UniProt P10636); experiment: Fluorescence and excitation spectra with tau fibrils; format: binding
T1 construct: made in house; host or cells: E. coli BL21
Protocol: Fluorescence measurements were performed using a PTI QuantaMaster™ 40 fluorescence spectrometer. Fluorescence spectra of 5 μM probes (concentrated stock solution prepared as 10 mM in DMSO) (7j, 7k, 7l, 7m, and ThT) in PBS buffer were measured in the absence and presence of 25 μM tau fibrils (stock solution 32 μM tau fibrils in PBS buffer).
Excitation spectral measurements were performed using a PTI QuantaMaster™ 40 fluorescence spectrometer. Excitation spectra of 5 μM probes (concentrated stock solution prepared as 10 mM in DMSO) (7j, 7k, 7l, 7m, and ThT) in PBS buffer were measured in the absence and presence of 25 μM tau fibrils (stock solution 32 μM tau fibrils in PBS buffer).
Fluorescence measurements were performed using a PTI QuantaMaster 40 fluorescence spectrometer. Fluorescence spectra of 5 μM probes (concentrated stock solution prepared as 10 mM in DMSO) (5j, 5k, and ThT) in PBS buffer were measured in the absence and presence of 25 μM tau fibrils (stock solution 32 μM tau fibrils in PBS buffer).
Excitation spectral measurements were performed using a PTI QuantaMaster™ 40 fluorescence spectrometer. Excitation spectra of 5 μM probes (concentrated stock solution prepared as 10 mM in DMSO) (5j, 5k, and ThT) in PBS buffer were measured in the absence and presence of 25 μM tau fibrils (stock solution 32 μM tau fibrils in PBS buffer). […]

[1] = Fluorescent quantum yield (QY) measurements; format: physicochemical; conditions: absence of αS PFFs (−); 100 μM dye
[2] = target: T2, amplified αS fibrils (AFs) from PDD patient brain extracts (Homo sapiens, UniProt P37840); experiment: Fluorescence measurements with PDD patient cases (lysate, AFs, PFFs); format: binding; conditions: lysate or AFs and probe 1 μM
T2 construct: made in house; host or cells: recombinant αS monomer, seeded with sarkosyl-insoluble extract of human frontal cortex (AD or PDD)
Protocol: All procedures were performed in accordance with local institutional review board guidelines. Written informed consent for autopsy and analysis of tissue sample data was obtained either from patients themselves or their next of kin. Frozen postmortem human frontal cortex brain tissues from three patients diagnosed with Alzheimer's disease (AD) and three patients diagnosed with Parkinson's disease with dementia (PDD) were selected for sequential extraction of αS aggregates based on a high burden of αS pathology determined by immunohistochemical staining. In brief, 5-10 g of frontal cortical gray matter were homogenized in five volumes (W/V) of high-salt (HS) buffer (50 mM Tris-HCl pH 7.4, 750 mM NaCl, 10 mM NaF, 5 mM EDTA) with protease and protein phosphatase inhibitors, incubated on ice for 20 min and centrifuged at 100,000×g for 30 min. The pellets were then re-extracted with HS buffer, followed by sequential extractions with five volumes of 1% Triton X-100-containing HS buffer and 1% Triton X-100-containing HS buffer with 30% sucrose. The pellets were then re-suspended and homogenized in 1% sarkosyl-containing HS buffer, rotated at room temperature for 2 h or at 4° C. overnight and centrifuged at 100,000×g for 30 min. […] These final sarkosyl-insoluble fractions are referred to as “brain extracts.: The amount of αS in the brain extracts was determined by sandwich ELISA using Syn9027, a mono-clonal antibody (Mab) to αS, and the protein concentrations were examined by bicinchoninic acid (BCA) assay. […]
Brain-derived αS aggregates in extract samples from three AD and three PDD cases (FIG. 38A) were used as seeds for templated aggregation of recombinant αS monomer. […] After seven days of incubation, amplification progress was determined by removing an aliquot and diluting tenfold in DPBS to a final αS concentration of 3.5 μM. […] Equal volumes of supernatant and pellet fractions were analyzed on SDS-PAGE gels and Western blot, with amplified aggregates migrating to the pellet fraction (FIG. 38B). […]

αS fibrils = target: T3, αS fibrils (Homo sapiens, UniProt P37840); experiment: Fractionation (total, supernatant, pellet) of αS fibrils with probe; format: binding; conditions: T, S, P fractions
T3 construct: intein-His6 (C, cleaved yes); made in house; host or cells: Escherichia coli BL21

T1 sequence (P10636 1-412 isoform P10636-7): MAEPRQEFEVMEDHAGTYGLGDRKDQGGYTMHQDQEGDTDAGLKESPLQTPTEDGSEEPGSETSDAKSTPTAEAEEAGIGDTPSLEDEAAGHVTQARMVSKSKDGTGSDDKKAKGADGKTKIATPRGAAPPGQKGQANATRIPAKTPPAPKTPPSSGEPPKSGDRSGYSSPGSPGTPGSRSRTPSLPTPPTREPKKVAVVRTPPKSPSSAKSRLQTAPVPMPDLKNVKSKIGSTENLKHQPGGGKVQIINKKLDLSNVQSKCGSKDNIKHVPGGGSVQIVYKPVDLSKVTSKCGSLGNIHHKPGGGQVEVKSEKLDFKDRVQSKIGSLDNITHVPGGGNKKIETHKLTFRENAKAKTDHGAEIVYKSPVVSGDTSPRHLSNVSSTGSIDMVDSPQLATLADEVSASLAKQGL

Cc1c(C)n2c(/C=C/c3ccc(N(C)C)cc3)c(C)c(=O)n2c1=O [Compound 7l, (E)-3-(4-(dimethylamino)styryl)-2,5,6-trimethyl-1H,7H-pyrazolo[1,2-a]pyrazole-1,7-dione]
emission maximum bound to tau (tau fibrils): 596 nm
Fluorescence QY [1]: 0.15%
fluorescence detection of PDD amplified fibrils (AFs) [2]: higher sensitivity to PDD derived AFs
fractionation of αS fibrils with probe (αS fibrils): selectively binds to the fibrils

Cc1c(C)n2c(/C=C/C=C/c3ccc(N(C)C)cc3)c(C)c(=O)n2c1=O [Compound 7m, 3-((1E,3E)-4-(4-(dimethylamino)phenyl)buta-1,3-dien-1-yl)-2,5,6-trimethyl-1H,7H-pyrazolo[1,2-a]pyrazole-1,7-dione]
fluorescence detection of PDD amplified fibrils (AFs) [2]: selective increase in fluorescence for PDD AFs compared to AD AFs
fractionation of αS fibrils with probe (αS fibrils): retained its fluorescence in the pellet fraction more than 2a

Cc1c(C)n2c(/C=C/c3ccc(N)cc3)c(C)c(=O)n2c1=O [Compound 7j, (E)-3-(4-aminostyryl)-2,5,6-trimethyl-1H,7H-pyrazolo[1,2-a]pyrazole-1,7-dione]
Fluorescence QY [1]: 0.17%
